Assay results as given in patent publication US20220289732A1, “HETEROCYCLIC WDR5 INHIBITORS AS ANTI-CANCER COMPOUNDS” (NOVARTIS AG, priority 2019, published 2022).

Columns and labels:
WDR5 = WDR5 (Homo sapiens, UniProt P61964); assay: WDR5 HTRF binding assay; conditions: read-out: (a) WDR5 HTRF Pep Val v.1[Inhibitor/IC50]Qualified AC50
Procedure, shortened: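 6 nM WDR5 and 20 nM biotin-MLL1 WIN peptide (3762-3773) were incubated with compound (12-point, 3-fold dilutions) in pH 7.5 Hepes/NaCl/DTT buffer for 20 min at rt. Streptavidin-APC plus anti-His-Eu were then added for 1 hr, with HTRF read at 665/615. IC50 was fit from control-normalized activity; the counter assay used 15 nM biotin-PEG-His peptide.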

[1] = molecular target: wild type MLL1 four-member complex (MLL1-4C) (Homo sapiens, UniProt P61964); assay: MLL1 LC-MS assay (SAH production); type: biochemical; conditions: read-out: (b) MLL LCMS Peptide Val.v.1 Qualified AC50
Procedure, shortened: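 MLL1-4C (30 nM final) was preincubated 20 min with compound (3-fold dilutions, 8 or 12 points) and SAM in Tris-HCl pH 8.0 buffer. H3K4me0 peptide (histone H3[1-21]-biotin) was then added, giving final 2.5 μM SAM and 10 μM substrate, and reactions ran 120 min at rt. After TFA/d4-SAH quench, SAH was quantified by LC-MS/MS and IC50 fitted from control-normalised activity.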

MV4-11 cells = assay: MV4-11 6-day cell growth CTG (CellTiter-Glo) assay; type: cell-based; conditions: Homo sapiens, MV4-11, 144 h, 6 days, read-out: (c) MLL/WDR5 cell proliferation assay//MLL/WDR5 proliferation MV4:11 Qualified AC50
Procedure, shortened: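 Exponentially growing MV4-11 AML cells (RPMI 1640, 10% FBS) seeded at 300 cells/well with 12-point 1:3 compound dilutions, top final concentration 50 μM. Viability read by CellTiter-Glo luminescence after 6 days at 37° C; % inhibition vs DMSO-only wells fitted to dose-response for IC50.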

CNc1nccn1Cc1cc(CN2CC(F)C2)c2c(c1)C(=O)N(Cc1cc(OC)c(F)cn1)CC2 [Example 30, 2-((5-fluoro-4-methoxypyridin-2-yl)methyl)-5-((3-fluoroazetidin-1-yl)methyl)-7-((2-(methylamino)-1H-imidazol-1-yl)methyl)-3,4-dihydroisoquinolin-1(2H)-one]
10 to 1000 nM: IC50 (WDR5) | AC50 [1] | AC50 (MV4-11 cells)

CNc1nccn1Cc1cc(CN2CC(OC)C2)c2c(c1)C(=O)N([C@@H](C)c1cc(OC)c(F)cn1)CC2 [Example 31, (S)-2-(1-(5-fluoro-4-methoxypyridin-2-yl)ethyl)-5-((3-methoxyazetidin-1-yl)methyl)-7-((2-(methylamino)-1H-imidazol-1-yl)methyl)-3,4-dihydroisoquinolin-1(2H)-one]
10 to 1000 nM: IC50 (WDR5) | AC50 [1] | AC50 (MV4-11 cells)

CCOc1cc([C@H](C)N2CCc3c(CN(C)C)cc(Cn4ccnc4NC)cc3C2=O)cnc1C#N [Example 32, (S)-5-(1-(5-((dimethylamino)methyl)-7-((2-(methylamino)-1H-imidazol-1-yl)methyl)-1-oxo-3,4-dihydroisoquinolin-2(1H)-yl)ethyl)-3-ethoxypicolinonitrile]
10 to 1000 nM: IC50 (WDR5) | AC50 [1] | AC50 (MV4-11 cells)

CNc1nccn1Cc1cc(CN2CC(F)C2)c2c(c1)C(=O)N(Cc1cnc(F)c(OC)c1)CC2 [Example 33, 2-((6-fluoro-5-methoxypyridin-3-yl)methyl)-5-((3-fluoroazetidin-1-yl)methyl)-7-((2-(methylamino)-1H-imidazol-1-yl)methyl)-3,4-dihydroisoquinolin-1(2H)-one]
10 to 1000 nM: IC50 (WDR5) | AC50 [1] | AC50 (MV4-11 cells)

CNc1nccn1Cc1cc(CN2CC(F)(F)C2)c2c(c1)C(=O)N([C@@H](C)c1cnc(F)c(OC)c1)CC2 [Example 34, (S)-5-((3,3-difluoroazetidin-1-yl)methyl)-2-(1-(6-fluoro-5-methoxypyridin-3-yl)ethyl)-7-((2-(methylamino)-1H-imidazol-1-yl)methyl)-3,4-dihydroisoquinolin-1(2H)-one]
10 to 1000 nM: IC50 (WDR5) | AC50 [1] | AC50 (MV4-11 cells)

CNc1nccn1Cc1cc(CN(C)CC(F)F)c2c(c1)C(=O)N([C@@H](C)c1cc(OC)c(F)cn1)CC2 [Example 35, (S)-5-(((2,2-difluoroethyl)(methyl)amino)methyl)-2-(1-(5-fluoro-4-methoxypyridin-2-yl)ethyl)-7-((2-(methylamino)-1H-imidazol-1-yl)methyl)-3,4-dihydroisoquinolin-1(2H)-one]
10 to 1000 nM: IC50 (WDR5) | AC50 [1] | AC50 (MV4-11 cells)

CNc1nccn1Cc1cc(CN2CC[C@@H](OC)C2)c2c(c1)C(=O)N([C@@H](C)c1cc(OC)c(F)cn1)CC2 [Example 36, 2-((S)-1-(5-fluoro-4-methoxypyridin-2-yl)ethyl)-5-(((R)-3-methoxypyrrolidin-1-yl)methyl)-7-((2-(methylamino)-1H-imidazol-1-yl)methyl)-3,4-dihydroisoquinolin-1(2H)-one]
10 to 1000 nM: IC50 (WDR5) | AC50 [1] | AC50 (MV4-11 cells)

CCOc1cc([C@H](C)N2CCc3c(CN4CC[C@H](F)C4)cc(Cn4ccnc4NC)cc3C2=O)ncc1F [Example 37, 2-((S)-1-(4-ethoxy-5-fluoropyridin-2-yl)ethyl)-5-(((S)-3-fluoropyrrolidin-1-yl)methyl)-7-((2-(methylamino)-1H-imidazol-1-yl)methyl)-3,4-dihydroisoquinolin-1(2H)-one]
10 to 1000 nM: IC50 (WDR5) | AC50 [1] | AC50 (MV4-11 cells)

CNc1nccn1Cc1cc(CN2CC(F)(F)C2)c2c(c1)C(=O)N(Cc1cc(OC)c(F)cn1)CC2 [Example 38, 5-((3,3-difluoroazetidin-1-yl)methyl)-2-((5-fluoro-4-methoxypyridin-2-yl)methyl)-7-((2-(methylamino)-1H-imidazol-1-yl)methyl)-3,4-dihydroisoquinolin-1(2H)-one]
10 to 1000 nM: IC50 (WDR5) | AC50 [1] | AC50 (MV4-11 cells)

CCOc1cc([C@H](C)N2CCc3c(CN4CC(F)C4)cc(Cn4ccnc4NC)cc3C2=O)ncc1F [Example 39, (S)-2-(1-(4-ethoxy-5-fluoropyridin-2-yl)ethyl)-5-((3-fluoroazetidin-1-yl)methyl)-7-((2-(methylamino)-1H-imidazol-1-yl)methyl)-3,4-dihydroisoquinolin-1(2H)-one]
10 to 1000 nM: IC50 (WDR5) | AC50 [1] | AC50 (MV4-11 cells)

CCOc1cc([C@H](C)N2CCc3c(CN4CC(F)(F)C4)cc(Cn4ccnc4NC)cc3C2=O)ncc1C#N [Example 40, (S)-6-(1-(5-((3,3-difluoroazetidin-1-yl)methyl)-7-((2-(methylamino)-1H-imidazol-1-yl)methyl)-1-oxo-3,4-dihydroisoquinolin-2(1H)-yl)ethyl)-4-ethoxynicotinonitrile]
10 to 1000 nM: IC50 (WDR5) | AC50 [1] | AC50 (MV4-11 cells)

CCOc1cc([C@H](C)N2CCc3c(CN4CC(F)C4)cc(Cn4ccnc4NC)cc3C2=O)cnc1C#N [Example 41, (S)-3-ethoxy-5-(1-(5-((3-fluoroazetidin-1-yl)methyl)-7-((2-(methylamino)-1H-imidazol-1-yl)methyl)-1-oxo-3,4-dihydroisoquinolin-2(1H)-yl)ethyl)picolinonitrile]
10 to 1000 nM: IC50 (WDR5) | AC50 [1] | AC50 (MV4-11 cells)

CNc1nccn1Cc1cc(CN2CC(F)C2)c2c(c1)C(=O)N([C@@H](C)c1cc(OC)c(F)cn1)CC2 [Example 42]
10 to 1000 nM: IC50 (WDR5) | AC50 [1] | AC50 (MV4-11 cells)

CNc1nccn1Cc1cc(CN2CC(F)C2)c2c(c1)C(=O)N([C@@H](C)c1cnc(F)c(OC)c1)CC2 [Example 43, (S)-2-(1-(6-fluoro-5-methoxypyridin-3-yl)ethyl)-5-((3-fluoroazetidin-1-yl)methyl)-7-((2-(methylamino)-1H-imidazol-1-yl)methyl)-3,4-dihydroisoquinolin-1(2H)-one]
10 to 1000 nM: IC50 (WDR5) | AC50 [1] | AC50 (MV4-11 cells)

CNc1nccn1Cc1cc(CN2CC[C@H](F)C2)c2c(c1)C(=O)N([C@@H](C)c1cc(OC)c(F)cn1)CC2 [Example 44, 2-((S)-1-(5-fluoro-4-methoxypyridin-2-yl)ethyl)-5-(((S)-3-fluoropyrrolidin-1-yl)methyl)-7-((2-(methylamino)-1H-imidazol-1-yl)methyl)-3,4-dihydroisoquinolin-1(2H)-one]
10 to 1000 nM: IC50 (WDR5) | AC50 [1] | AC50 (MV4-11 cells)

CNc1nccn1Cc1cc(CN(C)C)c2c(c1)C(=O)N([C@@H](C)c1cc(OC)c(C#N)cn1)CC2 [Example 45, (S)-6-(1-(5-((dimethylamino)methyl)-7-((2-(methylamino)-1H-imidazol-1-yl)methyl)-1-oxo-3,4-dihydroisoquinolin-2(1H)-yl)ethyl)-4-methoxynicotinonitrile]
10 to 1000 nM: IC50 (WDR5) | AC50 [1] | AC50 (MV4-11 cells)

CCOc1cc(CN2CCc3c(CN4CC(F)(F)C4)cc(Cn4ccnc4NC)cc3C2=O)cnc1C#N [Example 46, 5-((5((3,3-difluoroazetidin-1-yl)methyl)-7-((2-(methylamino)-1H-imidazol-1-yl)methyl)-1-oxo-3,4-dihydroisoquinolin-2(1H)-yl)methyl)-3-ethoxypicolinonitrile]
10 to 1000 nM: IC50 (WDR5) | AC50 [1] | AC50 (MV4-11 cells)
